Test results as given in US12581252B2, “Substituted pyrrolo[3,4-b]pyridines as PI3K-α inhibitors” (Relay Therapeutics, Inc., priority 2020, dated 2026).

Biological target: H1047R PIK3CA enzyme (Homo sapiens, UniProt P42336, H1047R)
Assay: ADP-Glo Biochemical PIK3CA Kinase Assay
Method: Compounds to be assayed were plated in 16 doses of 1:2 serial dilutions (20 nL volume each well) on a 1536-well plate, and the plate warmed to room temperature. […] To the well was added 1 μL of 200 μM ATP and 20 μM of diC8-PIP2 in Substrate Assay Buffer (50 mM HEPES pH7.4, 50 mM NaCl, 5 mM DTT and 0.03% CHAPS) to start the reaction, and the plate was shaken for 10 seconds, then spun briefly at 1500 rpm, and then incubated for 60 minutes at room temperature. The reaction was stopped by adding 2 μL of ADP-Glo reagent (Promega), and spinning briefly at 1500 rpm, and then incubating for 40 minutes. ADP-Glo Detection reagent (Promega) was added and the plate spun briefly at 1500 rpm, then incubated for 30 minutes.

Sequence of H1047R PIK3CA enzyme (P42336 whole entry H1047R): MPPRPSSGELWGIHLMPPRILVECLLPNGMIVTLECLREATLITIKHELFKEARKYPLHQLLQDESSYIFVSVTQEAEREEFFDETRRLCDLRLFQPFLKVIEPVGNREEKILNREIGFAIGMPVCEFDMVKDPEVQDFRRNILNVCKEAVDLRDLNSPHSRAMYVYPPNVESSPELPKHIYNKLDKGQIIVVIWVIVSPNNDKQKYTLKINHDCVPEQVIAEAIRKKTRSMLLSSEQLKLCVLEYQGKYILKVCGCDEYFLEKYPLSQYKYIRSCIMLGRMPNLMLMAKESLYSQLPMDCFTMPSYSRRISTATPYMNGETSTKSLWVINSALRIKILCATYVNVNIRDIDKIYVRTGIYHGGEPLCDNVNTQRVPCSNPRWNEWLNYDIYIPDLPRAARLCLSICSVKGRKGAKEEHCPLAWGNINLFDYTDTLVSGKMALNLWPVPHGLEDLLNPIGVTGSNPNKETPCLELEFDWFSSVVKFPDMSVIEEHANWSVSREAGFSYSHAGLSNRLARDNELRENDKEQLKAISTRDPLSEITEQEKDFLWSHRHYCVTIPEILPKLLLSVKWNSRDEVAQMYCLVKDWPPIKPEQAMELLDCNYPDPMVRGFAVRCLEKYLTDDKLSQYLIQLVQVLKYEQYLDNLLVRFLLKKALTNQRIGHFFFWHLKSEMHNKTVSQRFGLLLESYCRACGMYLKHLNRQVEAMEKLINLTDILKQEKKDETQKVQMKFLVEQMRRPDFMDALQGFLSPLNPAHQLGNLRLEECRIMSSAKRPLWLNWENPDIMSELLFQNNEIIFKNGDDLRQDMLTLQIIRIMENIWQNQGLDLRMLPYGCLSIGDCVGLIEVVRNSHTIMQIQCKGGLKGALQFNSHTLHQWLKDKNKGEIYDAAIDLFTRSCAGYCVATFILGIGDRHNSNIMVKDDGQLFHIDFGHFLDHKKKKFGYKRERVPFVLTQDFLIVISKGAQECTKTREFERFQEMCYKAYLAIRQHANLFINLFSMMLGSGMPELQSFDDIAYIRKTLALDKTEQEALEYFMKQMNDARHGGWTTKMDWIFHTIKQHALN
Sequence of H1047R PIK3CA enzyme (P27986 whole entry partner): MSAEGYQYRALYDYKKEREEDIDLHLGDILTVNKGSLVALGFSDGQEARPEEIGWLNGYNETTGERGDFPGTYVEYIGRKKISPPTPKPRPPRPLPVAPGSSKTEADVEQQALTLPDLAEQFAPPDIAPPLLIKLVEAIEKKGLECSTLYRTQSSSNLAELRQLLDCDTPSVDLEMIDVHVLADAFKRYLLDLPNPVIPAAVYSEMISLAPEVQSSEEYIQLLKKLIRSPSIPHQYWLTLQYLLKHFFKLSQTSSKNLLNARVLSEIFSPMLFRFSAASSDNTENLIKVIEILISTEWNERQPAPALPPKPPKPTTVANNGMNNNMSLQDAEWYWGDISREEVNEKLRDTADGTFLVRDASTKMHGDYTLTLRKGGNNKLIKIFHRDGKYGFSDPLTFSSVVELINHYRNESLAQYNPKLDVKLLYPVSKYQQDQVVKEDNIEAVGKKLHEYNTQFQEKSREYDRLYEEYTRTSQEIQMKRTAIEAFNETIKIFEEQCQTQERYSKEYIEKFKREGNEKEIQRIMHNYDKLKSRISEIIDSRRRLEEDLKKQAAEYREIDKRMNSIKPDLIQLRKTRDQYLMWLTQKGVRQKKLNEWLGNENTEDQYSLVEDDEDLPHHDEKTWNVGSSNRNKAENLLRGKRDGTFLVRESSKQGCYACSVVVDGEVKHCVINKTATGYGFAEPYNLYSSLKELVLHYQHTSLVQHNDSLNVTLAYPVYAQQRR

Row | IC50 | Structure (SMILES)
1 | ≤ 100 nM | CN1C(=O)CCC1COc1cc(NC(=O)c2cc(F)cc(C(F)(F)F)c2)c2c(c1)C(=O)NC2c1cc(F)ccc1Cl (racemic) [Compound I-1347]
2 | 1000 to 10000 nM | O=C(Nc1cc(-c2ccc3nc(C(F)F)cn3c2)cc2c1[C@@H](c1cc(F)ccc1Cl)NC2=O)c1cc(F)cc(C(F)(F)F)c1 [Compound I-1928]
3 | ≤ 100 nM | O=C(Nc1cc(Cc2ccc3c(c2)CNC3=O)cc2c1[C@H](c1cc(F)ccc1Cl)NC2=O)c1cc(F)cc(C(F)(F)F)c1 (stereo in doubt) [Compound I-1612]
4 | 1000 to 10000 nM | O=C(Nc1cc(Br)cc2c1C(c1cc(F)ccc1Cl)NC2=O)c1cc(Cl)ccc1OC(F)(F)F (centres unmarked) [Compound I-859]
5 | 1000 to 10000 nM | CC1(Cc2cc(NC(=O)c3cc(F)cc(C(F)(F)F)c3)c3c(c2)C(=O)N[C@@H]3c2cc(F)ccc2Cl)COC1 [Compound I-817]
6 | 1000 to 10000 nM | O=C(Nc1cc(-c2ccc3ncnn3c2)cc2c1C(c1cc(F)ccc1Cl)NC2=O)c1ccccc1 (centres unmarked) [Compound I-1550]
7 | 10000 to 100000 nM | Cn1cc(-c2ccc(C3NC(=O)c4cccc(NC(=O)c5cc(F)cc(C(F)(F)F)c5)c43)c(Cl)c2)cn1 (centres unmarked) [Compound I-425]
8 | 10000 to 100000 nM | O=C1NC(c2cc(F)ccc2Cl)c2c(NC3CCCNC3)cc(-c3ccc4ncnn4c3)cc21 (centres unmarked) [Compound I-2158, 6-([1,2,4]triazolo[1,5-a]pyridin-6-yl)-3-(2-chloro-5-fluorophenyl)-4-(piperidin-3-ylamino)isoindolin-1-one]
9 | 10000 to 100000 nM | Cc1ccccc1[C@H]1NC(=O)c2nccc(NC(=O)N3CCc4ccccc43)c21 [Compound I-228]
10 | ≤ 100 nM | O=C(Nc1cc(-c2cnn(C(F)F)c2)cc2c1C(c1cc(F)ccc1Cl)NC2=O)c1cc(F)cc(C(F)(F)F)c1 (centres unmarked) [Compound I-1657]
11 | 500 to 1000 nM | N#CCc1cc(NC(=O)N2C[C@](O)(C(F)(F)F)c3ccccc32)c2c(c1)C(=O)N[C@H]2c1cc(F)ccc1Cl (single isomer, unassigned) [Compound I-2604]
12 | ≤ 100 nM | [2H]C([2H])(c1cc(NC(=O)c2cc(F)cc(C(F)(F)F)c2)c2c(c1)C(=O)NC2c1cc(F)ccc1Cl)S(C)(=O)=O (centres unmarked) [Compound I-1551]
13 | 10000 to 100000 nM | CNC(=O)c1cc(NC(=O)c2ccccc2)c2c(c1)C(=O)NC2c1cc(F)ccc1Cl (centres unmarked) [Compound I-1548]
14 | ≤ 100 nM | N#Cc1cnc2cc(F)c(-c3cc(NC(=O)c4cc(F)cc(C(F)(F)F)c4)c4c(c3)C(=O)NC4c3cc(F)ccc3Cl)cn12 (centres unmarked) [Compound I-1838]
15 | 10000 to 100000 nM | O=C1NC(c2cc(F)ccc2Cl)c2c1cc(-c1ccc3ncnn3c1)cc2N1CCn2cnnc2C1 (centres unmarked) [Compound I-2019]
16 | 500 to 1000 nM | Cc1ccccc1[C@H]1NC(=O)c2nccc(NC(=O)N3C[C@@H](C)c4ccccc43)c21 (single isomer, unassigned) [Compound I-301]
17 | ≤ 100 nM | O=C1NC(c2cc(F)ccc2Cl)c2c(NC(=O)C34CC5CC(CC(Cl)(C5)C3)C4)cc(Br)cc21 (centres unmarked) [Compound I-1179]
18 | 1000 to 10000 nM | O=C1N[C@H](c2cc(F)ccc2Cl)c2c(NC(=O)N3CCc4ccccc43)cc(-c3ccc4ncnn4c3)cc21 (stereo in doubt) [Compound I-1716]

The remaining lines, values behind:

Row | Structure (SMILES) | IC50
19 | Cn1ccc2c(F)cc(C(=O)Nc3cc(Br)cc4c3C(c3cc(F)ccc3Cl)NC4=O)cc21 (centres unmarked) [Compound I-1005] | 1000 to 10000 nM
20 | Nc1ccc(C(=O)Nc2cc(Br)cc3c2C(c2cc(F)ccc2Cl)NC3=O)cc1C(F)(F)F (centres unmarked) [Compound I-719] | 1000 to 10000 nM
21 | N#Cc1ccc2c(c1)CCN2c1cc(NC(=O)c2cc(F)cc(C(F)(F)F)c2)c2c(c1)C(=O)NC2c1cc(F)ccc1Cl (centres unmarked) [Compound I-1263] | ≤ 100 nM
22 | O=C1NC(c2cc(F)ccc2Cl)c2c(NCC(=O)N3CCCCC3)cc(-c3ccc4ncnn4c3)cc21 (centres unmarked) [Compound I-2038] | 10000 to 100000 nM
23 | O=C(Nc1ccnc2c1C(c1cc(F)ccc1Cl)NC2=O)c1cc(F)cc(C(F)(F)F)c1 (centres unmarked) [Compound I-305] | 100 to 500 nM
24 | N#CC[C@@H](O)c1cc(NC(=O)c2cc(F)cc(C(F)(F)F)c2)c2c(c1)C(=O)N[C@@H]2c1cc(F)ccc1Cl (single isomer, unassigned) [Compound I-1391] | 1000 to 10000 nM
25 | CC(C)OC(C(=O)Nc1cc(-c2ccc3ncnn3c2)cc2c1C(c1cc(F)ccc1Cl)NC2=O)c1ccccc1 (centres unmarked) [Compound I-1662] | 1000 to 10000 nM
26 | Cc1ccccc1C1c2c(NC(=O)c3csc4ccccc34)cccc2C(=O)N1C (centres unmarked) [Compound I-82] | 10000 to 100000 nM
27 | O=C(Nc1cc(-c2cccnc2C(F)(F)F)cc2c1C(c1cc(F)ccc1Cl)NC2=O)c1cc(F)cc(C(F)(F)F)c1 (centres unmarked) [Compound I-892] | ≤ 100 nM
28 | O=C1N[C@@H](c2cc(F)ccc2Cl)c2c(NC(=O)N3C[C@@](O)(C(F)F)c4cc(F)ccc43)cc(Cl)cc21 (single isomer, unassigned) [Compound I-2589] | 1000 to 10000 nM
29 | CC(C)N1C[C@H](O)C[C@H]1C(=O)Nc1cccc2c1C(c1cc(F)ccc1Cl)NC2=O (mixture of isomers) [Compound I-2392] | 10000 to 100000 nM
30 | O=C(Nc1cc(Br)cc2c1C(c1cc(F)ccc1Cl)NC2=O)c1cncc(C(F)(F)F)c1 (centres unmarked) [Compound I-957] | 1000 to 10000 nM
31 | CCOC(=O)Cc1cc(F)cc(C(=O)Nc2cc(CC(=O)OCC)cc3c2C(c2cc(F)ccc2Cl)NC3=O)c1 (centres unmarked) [Compound I-697] | 1000 to 10000 nM
32 | O=C1NC(c2cc(F)ccc2Cl)c2c(NC(=O)N3CCCC34CCC4)cc(Br)cc21 (centres unmarked) [Compound I-2377] | 500 to 1000 nM
33 | O=C(Nc1cc(C(O)COCCO)cc2c1C(c1cc(F)ccc1Cl)NC2=O)c1cc(F)cc(C(F)(F)F)c1 (centres unmarked) [Compound I-1134] | 100 to 500 nM
34 | C[C@@H](C#N)Oc1cc(NC(=O)c2cc(F)cc(C(F)(F)F)c2)c2c(c1)C(=O)N[C@@H]2c1cc(F)ccc1Cl (single isomer, unassigned) [Compound I-2007] | 1000 to 10000 nM
35 | CC(C)Cc1cc(NC(=O)c2cc(F)cc(C(F)(F)F)c2)c2c(c1)C(=O)NC2c1cc(F)ccc1Cl (centres unmarked) [Compound I-293] | ≤ 100 nM
36 | O=C1N[C@H](c2cc(F)ccc2Cl)c2c(NC(=O)N3C[C@@H](O)C[C@@H]3CC(F)(F)F)cccc21 (racemic) [Compound I-2165] | 10000 to 100000 nM
37 | O=C(Nc1cc(-c2ccnn2CCO)cc2c1C(c1cc(F)ccc1Cl)NC2=O)c1cc(F)cc(C(F)(F)F)c1 (centres unmarked) [Compound I-1340] | ≤ 100 nM
38 | O=C(Nc1cc(OCC(O)CO)cc2c1C(c1cc(F)ccc1Cl)NC2=O)c1cc(F)cc(C(F)(F)F)c1 (centres unmarked) [Compound I-1341] | ≤ 100 nM
39 | Cc1ccccc1C1NC(=O)c2cccc(NC(=O)c3cccc(C(F)(F)F)c3)c21 (centres unmarked) [Compound I-435] | 1000 to 10000 nM

Row | Structure (SMILES) | IC50
40 | CN(C)C(=O)c1cc(-c2ccc3ncnn3c2)cc2c1C(c1cc(F)ccc1Cl)NC2=O (centres unmarked) [Compound I-1857] | 10000 to 100000 nM
41 | O=C(Nc1cc(Br)cc2c1C(c1cc(F)ccc1Cl)NC2=O)c1cc(F)cc(OC(F)F)c1 (centres unmarked) [Compound I-833] | 100 to 500 nM
42 | O=C(Nc1cc(Oc2ncccn2)cc2c1C(c1cc(F)ccc1Cl)NC2=O)c1cc(F)cc(C(F)(F)F)c1 (centres unmarked) [Compound I-1202] | 100 to 500 nM
43 | COc1cccc(-c2cc(NC(=O)c3cc(F)cc(C(F)(F)F)c3)c3c(c2)C(=O)N[C@@H]3c2cc(F)ccc2Cl)n1 (stereo in doubt) [Compound I-1007] | 1000 to 10000 nM
44 | O=C1N[C@@H](c2cc(F)ccc2Cl)c2c(NC(=O)[C@@H]3CCC[C@H](OC(F)(F)F)C3)cccc21 (single isomer, unassigned) [Compound I-2214] | 10000 to 100000 nM
45 | CC(C)(O)c1cc(NC(=O)c2cc(F)cc(C(F)(F)F)c2)c2c(c1)C(=O)NC2c1ccccc1C(F)F (centres unmarked) [Compound I-355] | ≤ 100 nM
46 | O=C1NC(c2cc(F)ccc2Cl)c2c(Nc3coc4ccccc34)cc(Br)cc21 (centres unmarked) [Compound I-1691] | 1000 to 10000 nM
47 | Cn1ncc2c(C(=O)Nc3cccc4c3C(c3cc(F)ccc3Cl)NC4=O)cc(F)cc21 (centres unmarked) [Compound I-871] | 10000 to 100000 nM
48 | N#Cc1ccc(Cl)c(C2NC(=O)c3cccc(NC(=O)c4cc(F)cc(C(F)(F)F)c4)c32)c1 (centres unmarked) [Compound I-485] | 10000 to 100000 nM
49 | O=C1N[C@@H](c2cc(F)ccc2Cl)c2c(NC(=O)N3C[C@@](O)(C(F)(F)F)c4cc(F)ccc43)ccc(-n3nccn3)c21 (single isomer, unassigned) [Compound I-2527] | 1000 to 10000 nM
50 | CC12CC3CC(F)(C1)CC(C(=O)Nc1cc(Br)cc4c1C(c1cc(F)ccc1Cl)NC4=O)(C3)C2 (centres unmarked) [Compound I-1635] | 100 to 500 nM
51 | O=C(Nc1cc(Br)cc2c1C(c1cc(F)ccc1Cl)NC2=O)c1cc(F)cc(COC(F)F)c1 (centres unmarked) [Compound I-1285] | 10000 to 100000 nM
52 | COc1cnc(-c2cc(NC(=O)c3cc(F)cc(C(F)(F)F)c3)c3c(c2)C(=O)NC3c2cc(F)ccc2Cl)cn1 (centres unmarked) [Compound I-1103] | ≤ 100 nM
53 | O=C(Nc1cc(Br)cc2c1C(c1cc(F)ccc1Cl)NC2=O)c1cc(F)c(F)c(Cl)c1 (centres unmarked) [Compound I-564] | ≤ 100 nM
54 | O=C(Nc1cc(CS(=O)(=O)N2CCOCC2)cc2c1[C@H](c1cc(F)ccc1Cl)NC2=O)c1cc(F)cc(C(F)(F)F)c1 [Compound I-1485] | ≤ 100 nM
55 | O=C(Nc1cc(N2CCOc3ccccc32)cc2c1C(c1cc(F)ccc1Cl)NC2=O)c1cc(F)cc(C(F)(F)F)c1 (centres unmarked) [Compound I-1189] | ≤ 100 nM
56 | N#CCCN(C(=O)c1cc(F)cc(C(F)(F)F)c1)c1cc(O)cc2c1C(c1cc(F)ccc1Cl)NC2=O (centres unmarked) [Compound I-2251] | 10000 to 100000 nM
57 | CCC(N)(CC)c1cc(NC(=O)c2cc(F)cc(C(F)(F)F)c2)c2c(c1)C(=O)NC2c1cc(F)ccc1Cl (centres unmarked) [Compound I-554] | ≤ 100 nM
58 | NC(=O)Cn1nc(Nc2cc(-c3ccc4ncnn4c3)cc3c2C(c2cc(F)ccc2Cl)NC3=O)c2ccccc21 (centres unmarked) [Compound I-1806] | 1000 to 10000 nM
59 | O=C1N[C@@H](c2cc(F)ccc2Cl)c2c(NC(=O)[C@H]3C[C@H](O)C[C@@H](C(F)(F)F)C3)cc(Br)cc21 (single isomer, unassigned) [Compound I-2151] | 1000 to 10000 nM
